According to the supplement of paper PMC10307832:

Key:
Experiment in all cases: relative viability (nuclei count vs DMSO), 5 days (fraction); higher = more cells survive
[1] = compound: C1COCCN1C2=NC(=NC3=C2OC4=C3C=CC=N4)C5=CC(=CC=C5)NC(=O)C6=CN=C(C=C6)N + N=C(N)NC(=N)NCCc1ccccc1 [Phenformin] (partner 250 µM)
Outline: (§1)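 Lung cancer cell lines, seeded in 1536-well plates, were treated the following day by pin tool with a single drug or with five library-drug doses (not always all listed) in √10 steps on top of a fixed anchor-drug dose. Cells were fixed and nuclei stained in one step after 5 days, and nuclei were counted. Relative viability is the nuclei count for treated wells divided by that for vehicle wells, reported as medians of duplicate plates.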

Entinostat + Dasatinib = compound: Nc1ccccc1NC(=O)c1ccc(CNC(=O)OCc2cccnc2)cc1 [Entinostat] + Cc1nc(Nc2ncc(C(=O)Nc3c(C)cccc3Cl)s2)cc(N2CCN(CCO)CC2)n1 [Dasatinib] (partner 0.075 µM)
Outline: as §1

[2] = compound: C1COCCN1C2=NC(=NC3=C2OC4=C3C=CC=N4)C5=CC(=CC=C5)NC(=O)C6=CN=C(C=C6)N + CC(C)C[C@H](NC(=O)[C@H](Cc1ccccc1)NC(=O)c1cnccn1)B(O)O [Bortezomib] (partner 0.002 µM)
Outline: as §1

[3] = compound: C1COCCN1C2=NC(=NC3=C2OC4=C3C=CC=N4)C5=CC(=CC=C5)NC(=O)C6=CN=C(C=C6)N + C[C@]1(O)C[C@@H](c2nc(-c3ccc4ccc(-c5ccccc5)nc4c3)c3c(N)nccn32)C1 [Linsitinib] (partner 1 µM)
Outline: as §1

Row | Cell Line | relative viability ([1]; first compound 0.02 µM) | relative viability ([1]; first compound 0.06325 µM) | relative viability ([1]; first compound 0.2 µM) | relative viability ([1]; first compound 0.6325 µM) | relative viability ([1]; first compound 2 µM) | relative viability (Entinostat + Dasatinib; first compound 0.02 µM) | relative viability (Entinostat + Dasatinib; first compound 0.06325 µM) | relative viability (Entinostat + Dasatinib; first compound 0.2 µM) | relative viability (Entinostat + Dasatinib; first compound 0.6325 µM) | relative viability (Entinostat + Dasatinib; first compound 2 µM) | relative viability ([2]; first compound 0.02 µM) | relative viability ([2]; first compound 0.06325 µM) | relative viability ([2]; first compound 0.2 µM) | relative viability ([2]; first compound 0.6325 µM) | relative viability ([2]; first compound 2 µM) | relative viability ([3]; first compound 0.02 µM) | relative viability ([3]; first compound 0.06325 µM) | relative viability ([3]; first compound 0.2 µM) | relative viability ([3]; first compound 0.6325 µM) | relative viability ([3]; first compound 2 µM)
1 | NCI-H2405 | 0.373 | 0.41 | 0.37 | 0.353 | 0.338 | 0.239 | 0.208 | 0.217 | 0.182 | 0.129 | 0.995 | 1.02 | 0.973 | 0.947 | 0.902 | 0.828 | 0.946 | 0.97 | 0.905 | 0.795
2 | HCC-44 | 0.182 | 0.191 | 0.137 | 0.157 | 0.171 | – | – | – | – | – | 0.933 | 1 | 0.849 | 0.943 | 0.726 | 0.616 | 0.846 | 0.711 | 0.606 | 0.331
3 | HCC-78 | 0.716 | 0.654 | 0.761 | 0.681 | 0.642 | 0.432 | 0.39 | 0.316 | 0.277 | 0.291 | 0.394 | 0.61 | 0.555 | 0.444 | 0.497 | 0.425 | 0.329 | 0.569 | 0.492 | 0.415
4 | COR-L23 | 0.426 | 0.445 | 0.418 | 0.433 | 0.218 | 0.45 | 0.444 | 0.398 | 0.22 | 0.112 | 1.13 | 1.18 | 1.08 | 1.13 | 0.474 | 1.16 | 0.978 | 0.933 | 1.04 | 0.543
5 | NCI-H2009 | 0.468 | 0.485 | 0.449 | 0.371 | 0.242 | 0.329 | 0.331 | 0.376 | 0.346 | 0.241 | 0.977 | 1.11 | 0.969 | 0.977 | 0.727 | 1.29 | 1.2 | 1.17 | 1.17 | 0.871
6 | NCI-H3122 | 0.619 | 0.359 | 0.347 | 0.372 | 0.343 | 1.03 | 0.98 | 0.812 | 0.629 | 0.0849 | 0.985 | 1.01 | 1.03 | 1.05 | 0.931 | 0.93 | 1.11 | 0.976 | 0.988 | 0.821
7 | NCI-H2228 | 0.322 | 0.392 | 0.273 | 0.233 | 0.222 | 0.446 | 0.358 | 0.3 | 0.208 | 0.126 | 1.25 | 1.1 | 0.975 | 0.84 | 0.488 | 0.588 | 0.481 | 0.737 | 0.728 | 0.524
8 | NCI-H1944 | 0.217 | 0.244 | 0.182 | 0.194 | 0.142 | 0.226 | 0.205 | 0.199 | 0.17 | 0.175 | – | – | – | – | – | 1.19 | 1.17 | 1.16 | 1.13 | 1
9 | NCI-H2342 | 0.651 | 0.564 | 0.565 | 0.695 | 0.576 | 0.305 | 0.319 | 0.291 | 0.274 | 0.278 | – | – | – | – | – | – | – | – | – | –
10 | NCI-H358 | – | 0.36 | 0.269 | 0.248 | 0.169 | 0.181 | 0.136 | 0.158 | 0.115 | 0.109 | – | – | – | – | – | 0.671 | 0.827 | 0.674 | 0.721 | 0.584
11 | NCI-H1755 | 0.606 | 0.652 | 0.644 | 0.336 | 0.469 | 0.431 | 0.503 | 0.445 | 0.28 | 0.218 | 0.947 | 1.08 | 0.904 | 0.918 | 0.613 | 1.02 | 1.01 | 0.992 | 0.94 | 0.509
12 | A-427 | 0.397 | 0.359 | 0.275 | 0.245 | 0.292 | 0.707 | 0.679 | 0.614 | 0.525 | 0.442 | 0.981 | 1.02 | 0.945 | 0.91 | 0.652 | 1.08 | 1.14 | 1.08 | 0.901 | 0.673
13 | NCI-H1650 | 0.358 | 0.402 | 0.413 | 0.355 | 0.237 | 0.385 | 0.354 | 0.407 | 0.284 | 0.212 | 0.179 | 0.23 | 0.205 | 0.191 | 0.188 | – | – | – | – | –
14 | NCI-H522 | 0.638 | 0.701 | 0.63 | 1.49 | 0.599 | 0.882 | 1.14 | 1.16 | 1.23 | 0.795 | – | – | – | – | – | – | – | – | – | –
15 | IA-LM | – | – | – | – | – | – | – | – | – | – | – | 0.78 | 0.537 | 0.645 | 0.39 | 0.439 | 0.696 | 0.526 | 0.565 | 0.327
16 | NCI-H1793 | 0.393 | 0.483 | 0.404 | 0.372 | 0.277 | 0.422 | 0.404 | 0.376 | 0.228 | 0.192 | – | – | – | – | – | 0.953 | 0.845 | 0.834 | 0.911 | 0.475
17 | SW 900 | 0.425 | 0.674 | 0.557 | 0.376 | 0.345 | 0.795 | 0.589 | 0.661 | 0.444 | 0.248 | – | – | – | – | – | – | – | – | – | –
18 | SK-MES-1 | 0.663 | 0.766 | 0.729 | 0.618 | 0.462 | 0.403 | 0.498 | 0.541 | 0.338 | 0.175 | – | – | – | – | – | 0.99 | 1.24 | 1.13 | 1.04 | 0.791
19 | EBC-1 | – | – | – | – | – | – | – | – | – | – | 0.541 | 0.521 | 0.431 | 0.455 | 0.417 | 0.826 | 1.07 | 0.875 | 0.847 | 0.58
20 | LK-2 | 0.538 | 0.551 | 0.249 | 0.2 | 0.252 | 0.292 | 0.389 | 0.388 | 0.286 | 0.301 | – | – | – | – | – | 0.464 | 0.797 | 0.625 | 0.624 | 0.395
21 | NCI-H1395 | 0.396 | 0.451 | 0.461 | 0.415 | 0.384 | 0.477 | 0.425 | 0.42 | 0.286 | 0.405 | – | – | – | – | – | 0.901 | 1 | 1.08 | 1.19 | 0.875
